Measurements published in the SangsterLogP compilation.

details: pH 2.0

Q: With `Cc1ccccc1O[C@@H]1C(=O)N(Cc2ccc3c(c2)OCO3)[C@H]1c1ccc2c(c1)OCO2` as the compound, how does the logD read?
A: The logD was 4.37.

same assay, conditions: pH 5.0

Q: For `CC(=O)C12c3ccccc3C(c3ccccc31)[C@H]1C(=O)N(c3ccc(C)c([N+](=O)[O-])c3)C(=O)[C@@H]12`, which logD is on record?
A: The logD was 4.74.

Q: Which logD does the source give for `COc1ccc(C(=O)OCC(=O)c2cc(C)n(C[C@@H]3CCCO3)c2C)c(OC)c1` here?
A: Its logD is 4.18.

Q: With `CCN(CC)S(=O)(=O)N1CCC[C@H](C(=O)NC2CCCCC2)C1` as the compound, how does the logD read?
A: Its logD is 3.58.

Q: For `COc1ccc(C(=O)/C=C/C=C(Cl)Cl)cc1`, which logD is on record?
A: The logD was 4.4.

Q: For `O=C1Nc2cc(C(=O)NC3CC3)ccc2S/C1=C\c1ccccc1`, which logD is on record?
A: The logD was 4.32.

Q: With `Cc1cccc(NC(=O)NC(C)C)c1C` as the compound, how does the logD read?
A: Its logD is 2.7.

Q: For `CC1(C)CC(=O)C2=C(C1)OC(N)=C(C#N)[C@H]2c1ccc(C(F)(F)F)cc1`, which logD is on record?
A: The logD was 4.55.

Q: For `C[C@@]1(c2ccc(Cl)cc2)NC(=S)N2[C@@H]1NC(=S)N2c1ccc(Cl)cc1`, which logD is on record?
A: Its logD is 4.94.

Q: For `COc1ccc([C@@H]2CC(=O)N(c3sc4c(c3C#N)CCCC4)C3=C2C(=O)CCC3)c(OC)c1`, which logD is on record?
A: Its logD is 4.55.

Q: For `CCN(C(=O)COC(=O)/C(=C/c1ccc(Cl)cc1)c1ccc(F)cc1)[C@@H]1CCS(=O)(=O)C1`, which logD is on record?
A: Its logD is 4.95.

Q: With `COc1ccc(Oc2c(C(F)(F)F)oc3cc(OC(=O)N4CCOCC4)ccc3c2=O)cc1` as the compound, how does the logD read?
A: Its logD is 4.63.

Q: Which logD does the source give for `O=C1/C(=C/c2c(Sc3ccccc3)nc3ccccn3c2=O)SC(=S)N1C[C@H]1CCCO1` here?
A: Its logD is 5.87.

Q: With `C[C@H]1C[C@H](NC(=S)NCc2csc3ccccc23)CC(C)(C)C1` as the compound, how does the logD read?
A: Its logD is 6.21.

Q: For `COc1cc([C@H]2C(C(=O)c3ccccc3)=C(N)N(c3ccccc3C(F)(F)F)C3=C2C(=O)CCC3)cc(OC)c1OC`, which logD is on record?
A: Its logD is 4.51.

Q: With `O=C1[C@H]2OC[C@H](O2)[C@H]2[C@@H]1[C@@H]1C=C[C@H]2C1` as the compound, how does the logD read?
A: The logD was 1.48.

Q: For `CCN(CC)S(=O)(=O)c1ccc2nnn(OCC(=O)NC(c3ccccc3)c3ccccc3)c2c1`, which logD is on record?
A: The logD was 4.49.

same assay, conditions: pH 6.5

Q: For `O=C(CCCCCN1C(=O)/C(=C\c2cccs2)SC1=S)N1CCOCC1`, which logD is on record?
A: The logD was 4.92.

Q: Which logD does the source give for `COc1ccc(N2C(=S)N=C(N[C@@H]([C@@H](Oc3ccc(Cl)cc3)n3cncn3)C(C)(C)C)C2(C)C)cc1` here?
A: Its logD is 5.56.

Q: Which logD does the source give for `Cc1cc2c(cc1C)N[C@@H](c1cc3c(cc1Cl)OCO3)C1=C(CC(C)(C)CC1=O)N2` here?
A: Its logD is 4.38.

Q: With `O=C(CN1C(=O)/C(=C2\SC(=S)N(Cc3ccco3)C2=O)c2ccccc21)Nc1ccc(F)cc1` as the compound, how does the logD read?
A: The logD was 6.36.

Q: With `CC(C)(C)S(=O)(=O)/C(C#N)=C/Nc1ccc(OC(F)(F)F)cc1` as the compound, how does the logD read?
A: Its logD is 4.28.

Q: For `C[C@H]1CCCN(C(=O)COC(=O)COc2cc(Cl)c(Cl)cc2Cl)C1`, which logD is on record?
A: The logD was 4.97.

same assay, conditions: pH 7.0

Q: For `O=C(/C=C/c1ccccc1)Nc1ccc(N2CCN(C(=O)c3cccs3)CC2)cc1`, which logD is on record?
A: The logD was 4.94.

same assay, conditions: pH 7.3

Q: Which logD does the source give for `CC(C)[C@@H](Sc1nnc(C(F)(F)F)n1C)C(=O)NC(N)=O` here?
A: Its logD is 2.12.

Q: Which logD does the source give for `CCOc1ccc(Br)cc1[C@H]1C2=C(CC(C)(C)CC2=O)Nc2ncnn21` here?
A: Its logD is 3.85.

Q: With `COc1ccc([C@H]2C[C@H](C(F)(F)F)n3ncc(C(=O)N(C)Cc4cnn(C)c4C)c3N2)cc1OC` as the compound, how does the logD read?
A: The logD was 4.25.

same assay, conditions: pH 8.0

Q: Which logD does the source give for `COc1ccc([C@@H]2Nc3ccccc3C(=O)N2c2ccccc2)cc1COc1ccc(NC(C)=O)cc1` here?
A: The logD was 4.65.

Q: With `COC(=O)CSc1nc(NCC(C)C)nc(N2CCOCC2)n1` as the compound, how does the logD read?
A: The logD was 3.75.

same assay, conditions: pH 10.0

Q: For `COC(=O)C1=C(C)N=C(C)C(C(=O)OC)[C@@H]1c1cccc(Cl)c1` (stereo partly drawn), which logD is on record?
A: The logD was 4.22.

Q: For `CCOC(=O)C1=C(C)NC2=C(C(=O)C[C@H](c3ccc(OC)c(OC)c3)C2)[C@H]1c1ccccc1OC`, which logD is on record?
A: Its logD is 3.79.

Q: With `Cc1cc(C(F)(F)F)nn1[C@@H](C)c1nnc(Nc2ccn(Cc3ccccc3)n2)s1` as the compound, how does the logD read?
A: Its logD is 5.34.

Q: Which logD does the source give for `C[C@H]1CN(C(=O)c2cc(-c3ccc4c(c3)OCO4)nc3ccccc23)C[C@H](C)O1` here?
A: Its logD is 4.19.

same assay, conditions: pH 10.5

Q: Which logD does the source give for `C[C@@H](c1nc2c3cnn(-c4ccccc4)c3ncn2n1)n1cc([N+](=O)[O-])cn1` here?
A: The logD was 3.73.

Q: With `C/C(=C\c1ccco1)[C@H]1C(C#N)=C(N)Oc2n[nH]c(-c3ccccc3)c21` as the compound, how does the logD read?
A: The logD was 4.82.

Q: With `CC(=O)C1=C(C)NC(SCC(=O)Nc2ccccc2)=C(C#N)[C@H]1c1ccccc1Cl` as the compound, how does the logD read?
A: Its logD is 4.97.

Q: Which logD does the source give for `CC(C)=CCCC1=NN(C=O)[C@@](C)(CCC=C(C)C)C1` here?
A: The logD was 5.02.

Q: For `CC[C@@H]1CCCCN1C(=O)CSc1nc(C)cc(C)n1`, which logD is on record?
A: Its logD is 3.61.
